# Measured values as given in ChEMBL document CHEMBL5725356, “Anti-fibrotic pyridinones” (2017).
# Test: ET-1 Assay: Fibroblasts (primary human lung and dermal, HFL-1, 3T3 etc) are seeded in 96-well plates at ~15000 cells/well and serum starved for 0-48 hours. After media exchange, compounds serially diluted in DMSO are added to the cells. After a brief incubation of ~30 min, stimulants (TGFb, serum, LPA etc) are added followed by further incubation for 16-48 hours. Media is then harvested and stored frozen in plate format for later endothelin-1 (ET-1) determination by ELISA. Toxicity measurements are made using the ATPlite kit (Perkin-Elmer). ET-1 is quantified using an ELISA kit (R&D Systems). The amount of ET-1 produced in the assay wells are back-calculated using the ELISA standard. The ability of a compound to inhibit ET-1 production is typically analyzed by fitting dose-response curves to a 4-parameter logistic function to obtain an EC50 value.
# Conditions: HFL1
row,Compound,EC50
1,O=c1ccc(C(F)(F)F)cn1-c1ccc(NCCN2CCN(CCO)CC2)cc1Cl,in the range around 125 µM
2,COCCOc1ccc(-n2cc(-c3cnn(C)c3)c(C)cc2=O)cc1,> 200 µM
3,CN1CCN(CCOc2cc(=O)n(-c3ccc(OC(F)(F)F)cc3)cc2-c2cnn(C)c2)CC1,in the range around 125 µM
4,Cn1cc(-c2cn(-c3ccc(OC(F)(F)F)cc3)c(=O)cc2NCc2cccnc2)cn1,in the range around 125 µM
